Measured values: patent US20260130933A1, “PHARMACEUTICAL COMPOSITION FOR PREVENTION OR TREATMENT OF NEPHROPATHY AND/OR DIABETES MELLITUS, COMPRISING ENAVOGLIFLOZIN” (DAEWOONG PHARMACEUTICAL CO., LTD., priority 2022, published 2026)

Assay: Example 2: phase 3 trial, enavogliflozin 0.3 mg vs dapagliflozin 10 mg once a day for 24 weeks added to metformin in patients with type 2 diabetes (same efficacy, exploratory and safety endpoints)
Format: in vivo, human
Procedure: Subjects who met the inclusion/exclusion criteria were administered a placebo of the clinical trial drug under single-blind (subject blinding) conditions during a 2-week run-in period while continuing to receive metformin. […] The randomized subjects were administered two tablets of the clinical trial drug for each administration group once a day, and then visited the institution at weeks 6, 12, 18, and 24 during the 24-week administration period to conduct efficacy and safety evaluations.
• 1. Change in HbA1c at week 24 after administration of clinical trial drug compared to Visit 2 (randomization)
• 1. Change in HbA1c at each time point of weeks 6, 12, and 18 after administration of clinical trial drug compared to Visit 2 (randomization) • 2. Change in FPG at each time point of weeks 6, 12, 18, and 24 after administration of clinical trial drug compared to Visit 2 (randomization) • 3. Proportion of subjects achieving HbA1c<7% at each time point of weeks 6, 12, 18, and 24 after administration of clinical trial drug • 4. Proportion of subjects achieving HbA1c<6.5% at each time point of weeks 6, 12, 18, and 24 after administration of clinical trial drug • 5. Proportion of subjects achieving therapeutic response (HbA1c change (HbA1c at Visit 2-HbA1c at each evaluation time point)>0.5% or HbA1c<7% at each evaluation time point compared to Visit 2 (randomization)) at each time point of weeks 6, 12, 18 and 24 after administration of clinical trial drug
• 1. Change in fasting c-peptide at each time point of weeks 6, 12, 18, and 24 after administration of clinical trial drug compared to Visit 2 (randomization) • 2. Change in body weight at each time point of weeks 6, 12, 18, and 24 after administration of clinical trial drug compared to Visit 2 (randomization) • 3. Change in fasting lipid concentration (total cholesterol, LDL-C, HDL-C, and triglycerides) at each time point of weeks 6, 12, 18, and 24 after administration of clinical trial drug compared to Visit 2 (randomization) • 4. Changes in systolic or diastolic blood pressure at each time point of weeks 6, 12, 18, and 24 after administration of clinical trial drug compared to Visit 2 (randomization) • 5. Changes in β-cell function and insulin resistance measured by HOMA-β and HOMA-IR at each time point of weeks 6, 12, 18, and 24 after administration of clinical trial drug compared to Visit 2 (randomization) • 6. Changes in renal function-related indicators (UACR, UGCR) measured by UACR at each time point of weeks 6, 12, 18, and 24 after administration of clinical trial drug compared to Visit 2 (randomization) • 7. Changes in obesity-related indicators (adiponectin, leptin) at each time point of weeks 6, 12, 18, and 24 after administration of clinical trial drug compared to Visit 2 (randomization)

[1] = Baseline, modified per-protocol set 1, enavogliflozin 0.3 mg, dapagliflozin 10 mg
[2] = Baseline, per-protocol set, enavogliflozin 0.3 mg, dapagliflozin 10 mg

CCOc1ccc(Cc2cc([C@@H]3O[C@H](CO)[C@@H](O)[C@H](O)[C@H]3O)ccc2Cl)cc1 [Dapagliflozin, reference compound]
Incidence of serious adverse drug reactions (24 weeks): 7 case
Adiponectin, Mean (SD) (Baseline, PPS): 6.6 µg/mL
Adiponectin, Median (Baseline, PPS): 5.94 µg/mL
HOMA-IR, Mean (SD) (Baseline, PPS): 3.85
HOMA-IR, Median (Baseline, PPS): 3.05
HOMA-β, Mean (SD) (Baseline, PPS): 44.44
HOMA-β, Median (Baseline, PPS): 38.75
Leptin, Mean (SD) (Baseline, PPS): 11.76 ng/mL
Leptin, Median (Baseline, PPS): 8.32 ng/mL
UACR, Mean (SD) (Baseline, PPS): 57420 mg/kg
UACR, Median (Baseline, PPS): 15.50 g/kg
UGCR, Mean (SD) (Baseline, PPS): 1.83 mg/mg
UGCR, Median (Baseline, PPS): 0.15 mg/mg
HDL-C, Mean (SD) (Baseline, mPPS1): 46.90(9.17) mg/dL
HDL-C, Median (Baseline, mPPS1): 46.00 mg/dL
LDL-C, Mean (SD) (Baseline, mPPS1): 76.16(26.27) mg/dL
LDL-C, Median (Baseline, mPPS1): 75.00 mg/dL
Triglycerides, Mean (SD) (Baseline, mPPS1): 132.92(75.63) mg/dL
Triglycerides, Median (Baseline, mPPS1): 115.00 mg/dL
Diastolic blood pressure, Mean (SD) (Baseline, mPPS2): 75.92 mmHg
Diastolic blood pressure, Median (Baseline, mPPS2): 75.00 mmHg
Systolic blood pressure, Mean (SD) (Baseline, mPPS2): 127.44(14.12) mmHg
Systolic blood pressure, Median (Baseline, mPPS2): 127.00 mmHg
fasting Total cholesterol, Mean (SD) [1]: 137.87(26.64) mg/dL
fasting Total cholesterol, Median [1]: 139.00 mg/dL
FPG, Mean (SD) [2]: 149.33 mg/dL
FPG, Median [2]: 142.00 mg/dL
HbA1c, Mean (SD) [2]: 7.68%
HbA1c, Median [2]: 7.49%
body weight, Mean (SD) [2]: 70.52(11.81) kg
body weight, Median [2]: 69.70 kg
fasting c-peptide, Mean (SD) [2]: 0.74(0.23) ng/mL
fasting c-peptide, Median [2]: 0.71 ng/mL
Adiponectin change from baseline, ANCOVA LS mean (SE) (Week 6, PPS): 0.8 µg/mL
Adiponectin change from baseline, Mean (SD) (Week 6, PPS): 0.77 µg/mL
Adiponectin change from baseline, Median (Week 6, PPS): 0.51 ng/mL
Adiponectin, Mean (SD) (Week 6, PPS): 7.4 µg/mL
Adiponectin, Median (Week 6, PPS): 6.36 µg/mL
HOMA-IR change from baseline, ANCOVA LS mean (SE) (Week 6, PPS): −1.31
HOMA-IR change from baseline, Mean (SD) (Week 6, PPS): −1.46
HOMA-IR change from baseline, Median (Week 6, PPS): −1.03
HOMA-IR, Mean (SD) (Week 6, PPS): 2.34
HOMA-IR, Median (Week 6, PPS): 2.07
HOMA-β change from baseline, ANCOVA LS mean (SE) (Week 6, PPS): −1.79
HOMA-β change from baseline, Mean (SD) (Week 6, PPS): −2.83
HOMA-β change from baseline, Median (Week 6, PPS): 1.10
HOMA-β, Mean (SD) (Week 6, PPS): 41.10
HOMA-β, Median (Week 6, PPS): 42.20
Leptin change from baseline, ANCOVA LS mean (SE) (Week 6, PPS): -1.62 ng/mL
Leptin change from baseline, Mean (SD) (Week 6, PPS): -1.61 ng/mL
Leptin change from baseline, Median (Week 6, PPS): -1.46 ng/mL
Leptin, Mean (SD) (Week 6, PPS): 9.85 ng/mL
Leptin, Median (Week 6, PPS): 5.51 ng/mL
UACR change from baseline, ANCOVA LS mean (SE) (Week 6, PPS): 8.13 g/kg
UACR change from baseline, Mean (SD) (Week 6, PPS): 4490 mg/kg
UACR change from baseline, Median (Week 6, PPS): 0.00 g/kg
UACR, Mean (SD) (Week 6, PPS): 62950 mg/kg
UACR, Median (Week 6, PPS): 13.90 g/kg
UGCR change from baseline, ANCOVA LS mean (SE) (Week 6, PPS): 50.10 mg/mg
UGCR change from baseline, Mean (SD) (Week 6, PPS): 47.54 mg/mg
UGCR change from baseline, Median (Week 6, PPS): 42.30 mg/mg
UGCR, Mean (SD) (Week 6, PPS): 48.64 mg/mg
UGCR, Median (Week 6, PPS): 43.08 mg/mg
HDL-C change from baseline, ANCOVA LS mean (SE) (Week 6, mPPS1): 1.60(0.61) mg/dL
HDL-C change from baseline, Mean (SD) (Week 6, mPPS1): 1.94(5.62) mg/dL
HDL-C change from baseline, Median (Week 6, mPPS1): 1.00 mg/dL
HDL-C, Mean (SD) (Week 6, mPPS1): 48.83(10.55) mg/dL
HDL-C, Median (Week 6, mPPS1): 48.50 mg/dL
LDL-C change from baseline, ANCOVA LS mean (SE) (Week 6, mPPS1): 4.20(1.95) mg/dL
LDL-C change from baseline, Mean (SD) (Week 6, mPPS1): 4.87(19.92) mg/dL
LDL-C change from baseline, Median (Week 6, mPPS1): 3.00 mg/dL
LDL-C, Mean (SD) (Week 6, mPPS1): 81.20(28.87) mg/dL
LDL-C, Median (Week 6, mPPS1): 76.50 mg/dL
Triglycerides change from baseline, ANCOVA LS mean (SE) (Week 6, mPPS1): −10.14(7.09) mg/dL
Triglycerides change from baseline, Mean (SD) (Week 6, mPPS1): −11.86(54.93) mg/dL
Triglycerides change from baseline, Median (Week 6, mPPS1): -2.00 mg/dL
Triglycerides, Mean (SD) (Week 6, mPPS1): 120.41(53.12) mg/dL
Triglycerides, Median (Week 6, mPPS1): 104.50 mg/dL
Diastolic blood pressure change from baseline, ANCOVA LS mean (SE) (Week 6, mPPS2): −1.47 mmHg
Diastolic blood pressure change from baseline, Mean (SD) (Week 6, mPPS2): −1.10 mmHg
Diastolic blood pressure change from baseline, Median (Week 6, mPPS2): 0.00 mmHg
Diastolic blood pressure, Mean (SD) (Week 6, mPPS2): 74.57 mmHg
Diastolic blood pressure, Median (Week 6, mPPS2): 75.00 mmHg
Systolic blood pressure change from baseline, ANCOVA LS mean (SE) (Week 6, mPPS2): −2.71(1.06) mmHg
Systolic blood pressure change from baseline, Mean (SD) (Week 6, mPPS2): −1.98(11.14) mmHg
Systolic blood pressure change from baseline, Median (Week 6, mPPS2): −1.50 mmHg
Systolic blood pressure, Mean (SD) (Week 6, mPPS2): 125.24(13.01) mmHg
Systolic blood pressure, Median (Week 6, mPPS2): 126.00 mmHg
Adiponectin change from baseline, ANCOVA LS mean (SE) (Week 12, PPS): 1.02 µg/mL
Adiponectin change from baseline, Mean (SD) (Week 12, PPS): 1.08 µg/mL
Adiponectin change from baseline, Median (Week 12, PPS): 0.83 ng/mL
Adiponectin, Mean (SD) (Week 12, PPS): 7.76 µg/mL
Adiponectin, Median (Week 12, PPS): 6.53 µg/mL
HOMA-IR change from baseline, ANCOVA LS mean (SE) (Week 12, PPS): −1.60
HOMA-IR change from baseline, Mean (SD) (Week 12, PPS): −1.74
HOMA-IR change from baseline, Median (Week 12, PPS): −1.27
HOMA-IR, Mean (SD) (Week 12, PPS): 2.17
HOMA-IR, Median (Week 12, PPS): 1.89
HOMA-β change from baseline, ANCOVA LS mean (SE) (Week 12, PPS): 8.75
HOMA-β change from baseline, Mean (SD) (Week 12, PPS): 8.97
HOMA-β change from baseline, Median (Week 12, PPS): 4.55
HOMA-β, Mean (SD) (Week 12, PPS): 53.77
HOMA-β, Median (Week 12, PPS): 45.50
